Source: ChEMBL document CHEMBL3137667, “[Drug-induced liver injury; fourteenth updated edition of the bibliographic database of liver injuries and related drugs]” (Gastroenterol Clin Biol, 2004)

How the values were obtained:
[1] = Highest frequency of moderate liver toxicity observed during clinical trials, expressed as a percentage. [column '% BIOL' in source]; conditions: human
[2] = Highest frequency of acute liver toxicity observed during clinical trials, expressed as a percentage. [column '% AIGUE' in source]; conditions: human
[3] = human, serum
[4] = human, serum; remark: listed apart in the source
[5] = human
[6] = human; remark: listed apart in the source
[7] = human; remark: listed apart in the source
[8] = human, serum, 4383 h
[9] = human; remark: listed apart in the source
[10] = human; remark: listed apart in the source
[11] = human; remark: listed apart in the source
[12] = human; remark: listed apart in the source
[13] = human; remark: listed apart in the source
[14] = human; remark: listed apart in the source
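Throughout, for Hepatotoxicity (association with vascular disease): count of indexed literature references reporting vascular liver injury in humans, e.g. peliosis hepatitis, hepatic veno-occlusive disease or Budd-Chiari syndrome.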
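Throughout, for Hepatotoxicity (benign tumour): value is a count of indexed literature references citing a benign tumour confirmed by histopathology.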
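Throughout, for Hepatotoxicity (choleostasis): human cholestatic liver injury, shown by histopathology or by peak ALT or AST elevation over alkaline phosphatase ratio below 2, value counts indexed literature reports.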
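Throughout, for Hepatotoxicity (chronic liver disease): chronic liver injury confirmed by histopathology or persistently raised serum aminotransferase activity beyond 6 months, value given as the count of indexed literature references.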
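Throughout, for Hepatotoxicity (cirrhosis): value is a count of indexed literature references reporting cirrhosis confirmed by histopathology.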
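Throughout, for Hepatotoxicity (cytolytic): human cytolytic liver injury, shown by histopathology or by a ratio above 5 of peak ALT or AST elevation to alkaline phosphatase elevation, value counts indexed references.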
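Throughout, for Hepatotoxicity (granulomatous hepatitis): value is a count of indexed literature references reporting granulomatous liver disease confirmed by histopathology.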
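Throughout, for Hepatotoxicity (malignant tumour): malignant tumour confirmed by histopathology, value gives the count of indexed literature references reporting it.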
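Throughout, for Hepatotoxicity (severe hepatitis): human clinical data: severe hepatitis, meaning potentially life-threatening liver failure or clinically observed cases, the value counts how many indexed literature references report it.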
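Throughout, for Hepatotoxicity (steatosis): steatosis confirmed by histopathology, value is the count of indexed references.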

N[C@H](Cc1cc(I)c(Oc2cc(I)c(O)c(I)c2)c(I)c1)C(=O)O [DEXTROTHYROXINE]
Hepatotoxicity (moderate) [1]: 40.2% | Hepatotoxicity (acute) [2]: 0% | Hepatotoxicity (moderate) [3]: 1 | Hepatotoxicity (acute) [4]: 0 | Hepatotoxicity (cytolytic) [5]: 0 | Hepatotoxicity (choleostasis) [6]: 0 | Hepatotoxicity (severe hepatitis) [7]: 0 | Hepatotoxicity (chronic liver disease) [8]: 0 | Hepatotoxicity (cirrhosis) [9]: 0 | Hepatotoxicity (granulomatous hepatitis) [10]: 0 | Hepatotoxicity (association with vascular disease) [11]: 0 | Hepatotoxicity (steatosis) [12]: 0 | Hepatotoxicity (malignant tumour) [13]: 0 | Hepatotoxicity (benign tumour) [14]: 0

CC(=O)Nc1c(I)c(NC(C)=O)c(I)c(C(=O)O)c1I [DIATRIZOIC ACID]
Hepatotoxicity (moderate) [1]: 0% | Hepatotoxicity (acute) [2]: 0% | Hepatotoxicity (moderate) [3]: 1 | Hepatotoxicity (acute) [4]: 0 | Hepatotoxicity (cytolytic) [5]: 0 | Hepatotoxicity (choleostasis) [6]: 0 | Hepatotoxicity (severe hepatitis) [7]: 0 | Hepatotoxicity (chronic liver disease) [8]: 0 | Hepatotoxicity (cirrhosis) [9]: 0 | Hepatotoxicity (granulomatous hepatitis) [10]: 0 | Hepatotoxicity (association with vascular disease) [11]: 0 | Hepatotoxicity (steatosis) [12]: 0 | Hepatotoxicity (malignant tumour) [13]: 0 | Hepatotoxicity (benign tumour) [14]: 0

CCOC(=O)NC1=C(N2CC2)C(=O)C(NC(=O)OCC)=C(N2CC2)C1=O [DIAZIQUONE]
Hepatotoxicity (moderate) [1]: 50% | Hepatotoxicity (acute) [2]: 0% | Hepatotoxicity (moderate) [3]: 5 | Hepatotoxicity (acute) [4]: 0 | Hepatotoxicity (cytolytic) [5]: 0 | Hepatotoxicity (choleostasis) [6]: 0 | Hepatotoxicity (severe hepatitis) [7]: 0 | Hepatotoxicity (chronic liver disease) [8]: 0 | Hepatotoxicity (cirrhosis) [9]: 0 | Hepatotoxicity (granulomatous hepatitis) [10]: 0 | Hepatotoxicity (association with vascular disease) [11]: 0 | Hepatotoxicity (steatosis) [12]: 0 | Hepatotoxicity (malignant tumour) [13]: 0 | Hepatotoxicity (benign tumour) [14]: 0

Oc1ccc(Cl)cc1Cc1cc(Cl)ccc1O [DICHLOROPHEN]
Hepatotoxicity (moderate) [1]: 0% | Hepatotoxicity (acute) [2]: 0% | Hepatotoxicity (moderate) [3]: 0 | Hepatotoxicity (acute) [4]: 2 | Hepatotoxicity (cytolytic) [5]: 2 | Hepatotoxicity (choleostasis) [6]: 1 | Hepatotoxicity (severe hepatitis) [7]: 0 | Hepatotoxicity (chronic liver disease) [8]: 0 | Hepatotoxicity (cirrhosis) [9]: 0 | Hepatotoxicity (granulomatous hepatitis) [10]: 0 | Hepatotoxicity (association with vascular disease) [11]: 0 | Hepatotoxicity (steatosis) [12]: 0 | Hepatotoxicity (malignant tumour) [13]: 0 | Hepatotoxicity (benign tumour) [14]: 0

CCN(CC)C(=O)N1CCN(C)CC1 [DIETHYLCARBAMAZINE]
Hepatotoxicity (moderate) [1]: 0% | Hepatotoxicity (acute) [2]: 0% | Hepatotoxicity (moderate) [3]: 1 | Hepatotoxicity (acute) [4]: 0 | Hepatotoxicity (cytolytic) [5]: 0 | Hepatotoxicity (choleostasis) [6]: 0 | Hepatotoxicity (severe hepatitis) [7]: 0 | Hepatotoxicity (chronic liver disease) [8]: 0 | Hepatotoxicity (cirrhosis) [9]: 0 | Hepatotoxicity (granulomatous hepatitis) [10]: 0 | Hepatotoxicity (association with vascular disease) [11]: 0 | Hepatotoxicity (steatosis) [12]: 0 | Hepatotoxicity (malignant tumour) [13]: 0 | Hepatotoxicity (benign tumour) [14]: 0

C[C@H]1O[C@@H](O[C@H]2[C@@H](O)C[C@H](O[C@H]3[C@@H](O)C[C@H](O[C@H]4CC[C@@]5(C)[C@H](CC[C@@H]6[C@@H]5C[C@@H](O)[C@]5(C)[C@@H](C7=CC(=O)OC7)CC[C@]65O)C4)O[C@@H]3C)O[C@@H]2C)C[C@H](O)[C@@H]1O [DIGOXIN]
Hepatotoxicity (moderate) [1]: 8.3% | Hepatotoxicity (acute) [2]: 0% | Hepatotoxicity (moderate) [3]: 1 | Hepatotoxicity (acute) [4]: 0 | Hepatotoxicity (cytolytic) [5]: 0 | Hepatotoxicity (choleostasis) [6]: 0 | Hepatotoxicity (severe hepatitis) [7]: 0 | Hepatotoxicity (chronic liver disease) [8]: 0 | Hepatotoxicity (cirrhosis) [9]: 0 | Hepatotoxicity (granulomatous hepatitis) [10]: 0 | Hepatotoxicity (association with vascular disease) [11]: 0 | Hepatotoxicity (steatosis) [12]: 0 | Hepatotoxicity (malignant tumour) [13]: 0 | Hepatotoxicity (benign tumour) [14]: 0

CN(C)CCCN1c2ccccc2C(C)(C)c2ccccc21 [DIMETACRINE]
Hepatotoxicity (moderate) [1]: 0% | Hepatotoxicity (acute) [2]: 0% | Hepatotoxicity (moderate) [3]: 1 | Hepatotoxicity (acute) [4]: 0 | Hepatotoxicity (cytolytic) [5]: 0 | Hepatotoxicity (choleostasis) [6]: 0 | Hepatotoxicity (severe hepatitis) [7]: 0 | Hepatotoxicity (chronic liver disease) [8]: 0 | Hepatotoxicity (cirrhosis) [9]: 0 | Hepatotoxicity (granulomatous hepatitis) [10]: 0 | Hepatotoxicity (association with vascular disease) [11]: 0 | Hepatotoxicity (steatosis) [12]: 0 | Hepatotoxicity (malignant tumour) [13]: 0 | Hepatotoxicity (benign tumour) [14]: 0

CN(C)CCOC(c1ccccc1)c1ccccc1 [DIPHENHYDRAMINE]
Hepatotoxicity (moderate) ([1]; Liver): 1.4% | Hepatotoxicity (acute) ([2]; Liver): 0% | Hepatotoxicity (moderate) [3]: 1 | Hepatotoxicity (acute) [4]: 0 | Hepatotoxicity (cytolytic) ([5]; Liver): 0 | Hepatotoxicity (choleostasis) ([6]; Liver): 0 | Hepatotoxicity (severe hepatitis) ([7]; Liver): 0 | Hepatotoxicity (chronic liver disease) [8]: 0 | Hepatotoxicity (cirrhosis) [9]: 0 | Hepatotoxicity (granulomatous hepatitis) ([10]; Liver): 0 | Hepatotoxicity (association with vascular disease) [11]: 0 | Hepatotoxicity (steatosis) [12]: 0 | Hepatotoxicity (malignant tumour) [13]: 0 | Hepatotoxicity (benign tumour) [14]: 0

OC(CCCN1CCCCC1)(c1ccccc1)c1ccccc1 [DIPHENIDOL]
Hepatotoxicity (moderate) [1]: 0% | Hepatotoxicity (acute) [2]: 0% | Hepatotoxicity (moderate) [3]: 0 | Hepatotoxicity (acute) [4]: 1 | Hepatotoxicity (cytolytic) [5]: 0 | Hepatotoxicity (choleostasis) [6]: 0 | Hepatotoxicity (severe hepatitis) [7]: 0 | Hepatotoxicity (chronic liver disease) [8]: 0 | Hepatotoxicity (cirrhosis) [9]: 0 | Hepatotoxicity (granulomatous hepatitis) [10]: 0 | Hepatotoxicity (association with vascular disease) [11]: 0 | Hepatotoxicity (steatosis) [12]: 0 | Hepatotoxicity (malignant tumour) [13]: 0 | Hepatotoxicity (benign tumour) [14]: 0

CCC(C)(C)NCC(O)COc1ccccc1C(=O)CCc1ccccc1 (stereo not given) [DIPRAFENONE]
Hepatotoxicity (moderate) [1]: 3.7% | Hepatotoxicity (acute) [2]: 1.6% | Hepatotoxicity (moderate) [3]: 3 | Hepatotoxicity (acute) [4]: 1 | Hepatotoxicity (cytolytic) [5]: 0 | Hepatotoxicity (choleostasis) [6]: 1 | Hepatotoxicity (severe hepatitis) [7]: 0 | Hepatotoxicity (chronic liver disease) [8]: 0 | Hepatotoxicity (cirrhosis) [9]: 0 | Hepatotoxicity (granulomatous hepatitis) [10]: 0 | Hepatotoxicity (association with vascular disease) [11]: 0 | Hepatotoxicity (steatosis) [12]: 0 | Hepatotoxicity (malignant tumour) [13]: 0 | Hepatotoxicity (benign tumour) [14]: 0

CC[C@H]1OC(=O)[C@H](C)[C@@H](O[C@H]2C[C@@](C)(OC)[C@@H](O)[C@H](C)O2)[C@H](C)[C@@H](O[C@@H]2O[C@H](C)C[C@H](N(C)C)[C@H]2O)[C@](C)(O)C[C@@H](C)[C@@H]2N[C@@H](COCCOC)O[C@H]([C@H]2C)[C@]1(C)O [DIRITHROMYCIN]
Hepatotoxicity (moderate) [1]: 28.6% | Hepatotoxicity (acute) [2]: 0% | Hepatotoxicity (moderate) [3]: 3 | Hepatotoxicity (acute) [4]: 0 | Hepatotoxicity (cytolytic) [5]: 0 | Hepatotoxicity (choleostasis) [6]: 0 | Hepatotoxicity (severe hepatitis) [7]: 0 | Hepatotoxicity (chronic liver disease) [8]: 0 | Hepatotoxicity (cirrhosis) [9]: 0 | Hepatotoxicity (granulomatous hepatitis) [10]: 0 | Hepatotoxicity (association with vascular disease) [11]: 0 | Hepatotoxicity (steatosis) [12]: 0 | Hepatotoxicity (malignant tumour) [13]: 0 | Hepatotoxicity (benign tumour) [14]: 0

O=C(O[C@@H]1C[C@@H]2C[C@H]3C[C@H](C1)N2CC3=O)c1c[nH]c2ccccc12 [DOLASETRON]
Hepatotoxicity (moderate) [1]: 6.7% | Hepatotoxicity (acute) [2]: 0% | Hepatotoxicity (moderate) [3]: 1 | Hepatotoxicity (acute) [4]: 0 | Hepatotoxicity (cytolytic) [5]: 0 | Hepatotoxicity (choleostasis) [6]: 0 | Hepatotoxicity (severe hepatitis) [7]: 0 | Hepatotoxicity (chronic liver disease) [8]: 0 | Hepatotoxicity (cirrhosis) [9]: 0 | Hepatotoxicity (granulomatous hepatitis) [10]: 0 | Hepatotoxicity (association with vascular disease) [11]: 0 | Hepatotoxicity (steatosis) [12]: 0 | Hepatotoxicity (malignant tumour) [13]: 0 | Hepatotoxicity (benign tumour) [14]: 0

COc1cc2nc(N3CCN(C(=O)C4COc5ccccc5O4)CC3)nc(N)c2cc1OC (stereo not given) [DOXAZOSIN]
Hepatotoxicity (moderate) [1]: 2.9% | Hepatotoxicity (acute) [2]: 0% | Hepatotoxicity (moderate) [3]: 2 | Hepatotoxicity (acute) [4]: 0 | Hepatotoxicity (cytolytic) [5]: 0 | Hepatotoxicity (choleostasis) [6]: 0 | Hepatotoxicity (severe hepatitis) [7]: 0 | Hepatotoxicity (chronic liver disease) [8]: 0 | Hepatotoxicity (cirrhosis) [9]: 0 | Hepatotoxicity (granulomatous hepatitis) [10]: 0 | Hepatotoxicity (association with vascular disease) [11]: 0 | Hepatotoxicity (steatosis) [12]: 0 | Hepatotoxicity (malignant tumour) [13]: 0 | Hepatotoxicity (benign tumour) [14]: 0

CC/C(=C(/c1ccc(OCCN(C)C)cc1)c1cccc(O)c1)c1ccccc1 [DROLOXIFENE]
Hepatotoxicity (moderate) [1]: 6.6% | Hepatotoxicity (acute) [2]: 0% | Hepatotoxicity (moderate) [3]: 4 | Hepatotoxicity (acute) [4]: 0 | Hepatotoxicity (cytolytic) [5]: 0 | Hepatotoxicity (choleostasis) [6]: 0 | Hepatotoxicity (severe hepatitis) [7]: 0 | Hepatotoxicity (chronic liver disease) [8]: 0 | Hepatotoxicity (cirrhosis) [9]: 0 | Hepatotoxicity (granulomatous hepatitis) [10]: 0 | Hepatotoxicity (association with vascular disease) [11]: 0 | Hepatotoxicity (steatosis) [12]: 0 | Hepatotoxicity (malignant tumour) [13]: 0 | Hepatotoxicity (benign tumour) [14]: 0

CCC(Cc1cnc2nc(N)nc(N)c2n1)c1ccc(C(=O)N[C@@H](CCC(=O)O)C(=O)O)cc1 (stereo not given in full) [EDATREXATE]
Hepatotoxicity (moderate) [1]: 30% | Hepatotoxicity (acute) [2]: 3.2% | Hepatotoxicity (moderate) [3]: 8 | Hepatotoxicity (acute) [4]: 2 | Hepatotoxicity (cytolytic) [5]: 2 | Hepatotoxicity (choleostasis) [6]: 0 | Hepatotoxicity (severe hepatitis) [7]: 0 | Hepatotoxicity (chronic liver disease) [8]: 0 | Hepatotoxicity (cirrhosis) [9]: 0 | Hepatotoxicity (granulomatous hepatitis) [10]: 0 | Hepatotoxicity (association with vascular disease) [11]: 0 | Hepatotoxicity (steatosis) [12]: 0 | Hepatotoxicity (malignant tumour) [13]: 0 | Hepatotoxicity (benign tumour) [14]: 0
